Values of other authors in patent US20100255118A1, “ORAL ZINC MEDICANTS USEFUL FOR SAFELY LOWERING FREE COPPER ABSORPTION AND FREE COPPER LEVELS” (priority 2007, published 2010).

Tests used:
[1] = humans, oral dose of Cu64 as copper acetate
[2] = infant rhesus monkeys
[3] = Wilson's patients
[4] = adequate intake by mothers prior to pregnancy

In the case of copper acetate, the “oral dose absorbed from the gastrointestinal tract” value [1] is listed as “about 65%” and the “oral dose absorbed from the gastrointestinal tract (range)” value ([1]; range) is listed as 15-97%.
In the case of `[67Cu]` [Cu^67], the copper absorption [2] is listed as 50-70%.
In the case of `[Zn]` [zinc], the “time to achieve intestinal metallothionein induction and a negative copper balance” value [3] is given as “approximately two” and the “copper balance induced (average)” value ([3]; at the two week point) is given as −0.35 mg daily.
For `Nc1nc2ncc(CNc3ccc(C(=O)N[C@@H](CCC(=O)O)C(=O)O)cc3)nc2c(=O)[nH]1` [folic acid], the “reduction of the incidence of NTDs” value [4] is given as “up to 70%”.
